Reference: patent US20230181614A1, “ADMINISTRATION OF CITICOLINE TO IMPROVE COGNITIVE PERFORMANCE, ATTENTIONAL PERFORMANCE, AND MOTOR FUNCTION” (KYOWA HAKKO BIO CO., LTD., priority 2014, published 2023)

Tested on: Healthy subjects, ages 13-18
Experiment: Ruff 2 & 7 test (visual attention)
Assay type: in vivo, human
Details: for Ruff 2 & 7 Accuracy Difference Score V1 (Mean) / Ruff 2 & 7 Speed Difference Score V1 (Mean) / Ruff 2 & 7 Total Accuracy T Score V1 (Mean) / Ruff 2 & 7 Total Difference Score V1 (Mean) / Ruff 2 & 7 Total Speed T Score V1 (Mean): Visit 1; for Ruff 2 & 7 Accuracy Difference Score V3 (Mean) / Ruff 2 & 7 Speed Difference Score V3 (Mean) / Ruff 2 & 7 Total Accuracy T Score V3 (Mean) / Ruff 2 & 7 Total Difference Score V3 (Mean) / Ruff 2 & 7 Total Speed T Score V3 (Mean): Visit 3
Text: Study participants were screened by telephone prior to study enrollment. Healthy subjects, ages 13-18, with no significant medical conditions and no history of co-morbid psychiatric disorder, current Axis I or II diagnosis, or previous participation in a pharmacotherapeutic trial, were selected. Use of any psychotropic medication or any previous head injury resulting in loss of consciousness for 5 or more minutes were used as exclusion criteria. While no participant met criteria for a neuropsychiatric disorder at enrollment, clinical assessments were still completed throughout the study to evaluate changes in mood state. In addition, self-reports of sleep habits, lifestyle, and exercise routines were also administered at baseline as well as at each study visit to assess changes in health habits during study participation. Following the completion of Visit 1 assessment, participants were given their 28-day supply of citicoline (250 mg or 500 mg) or placebo, which was randomly assigned. They were instructed to take one capsule a day every day for the next 28 days. Visit 2 occurred fourteen days after Visit 1. At Visit 2, the remaining study pills were counted and participant dosage calendars were checked to ensure compliance with the protocol. Additional neuropsychological measures and clinical assessments were administered during this visit. Participants returned for Visit 3 fourteen days later, on the 28th day of their study participation. The pill bottle and the dosage calendar were collected from each participant. Urine and blood were again obtained. Participants also participated in similar clinical and neuropsychological testing and clinical measures that were given during visit 1. The Ruff 2 & 7 measures two aspects of visual attention: sustained attention and selective attention. There are a series of 20 trials involving visual searching in which the respondent detects and marks through all given stimuli the digits “2” and “7”. In the 10 Automatic Detection trials, the target digits are embedded among alphabetical letters that serve as distractors. In the 10 Controlled Search trials, the target digits are embedded among other numbers that serve as distractors. Correct hits and errors are counted for each trial and serve as the basis for scoring the test. Accuracy scores evaluate the number of targets identified in relation to the number of possible targets. The Ruff 2 & 7 was administered at all three visits.

[1] = 250 mg/day group, visit difference score V3-V1
[2] = 500 mg/day group, visit difference score V3-V1

## C[N+](C)(C)CCOP(=O)(O)OP(=O)([O-])OC[C@H]1O[C@@H](n2ccc(N)nc2=O)[C@H](O)[C@@H]1O [citicoline, Cytidine 5′-diphosphocholine]
250 mg/day group
  Ruff 2 & 7 Accuracy Difference Score V1 (Mean): 0.02
  Ruff 2 & 7 Speed Difference Score V1 (Mean): 0.01
  Ruff 2 & 7 Total Accuracy T Score V1 (Mean): 47.41
  Ruff 2 & 7 Total Difference Score V1 (Mean): 0.01
  Ruff 2 & 7 Total Speed T Score V1 (Mean): 45.74
  Ruff 2 & 7 Accuracy Difference Score V3 (Mean): 0.01
  Ruff 2 & 7 Speed Difference Score V3 (Mean): 0.01
  Ruff 2 & 7 Total Accuracy T Score V3 (Mean): 53.00
  Ruff 2 & 7 Total Difference Score V3 (Mean): 0.02
  Ruff 2 & 7 Total Speed T Score V3 (Mean): 54.85
[1]
  Ruff 2 & 7 Speed Difference Score V3-V1 (Mean): 0.00
  Ruff 2 & 7 Total Accuracy T Score V3-V1 (Mean): 5.59
  Ruff 2 & 7 Total Difference Score V3-V1 (Mean): 0.00
  Ruff 2 & 7 Total Speed T Score V3-V1 (Mean): 9.11
500 mg/day group
  Ruff 2 & 7 Accuracy Difference Score V1 (Mean): 0.02
  Ruff 2 & 7 Speed Difference Score V1 (Mean): 0.01
  Ruff 2 & 7 Total Accuracy T Score V1 (Mean): 42.71
  Ruff 2 & 7 Total Difference Score V1 (Mean): 0.02
  Ruff 2 & 7 Total Speed T Score V1 (Mean): 44.33
  Ruff 2 & 7 Accuracy Difference Score V3 (Mean): 0.00
  Ruff 2 & 7 Speed Difference Score V3 (Mean): 0.02
  Ruff 2 & 7 Total Accuracy T Score V3 (Mean): 49.88
  Ruff 2 & 7 Total Difference Score V3 (Mean): 0.02
  Ruff 2 & 7 Total Speed T Score V3 (Mean): 53.75
[2]
  Ruff 2 & 7 Accuracy Difference Score V3-V1 (Mean): -0.02
  Ruff 2 & 7 Speed Difference Score V3-V1 (Mean): 0.01
  Ruff 2 & 7 Total Accuracy T Score V3-V1 (Mean): 7.17
  Ruff 2 & 7 Total Difference Score V3-V1 (Mean): 0.01
  Ruff 2 & 7 Total Speed T Score V3-V1 (Mean): 9.42
